In ChEMBL document CHEMBL1125759, “A new ionizable chromophore of 1,4-bis(alkylamino)benzo[g]phthalazine which interacts with DNA by intercalation” (J Med Chem, 1991):
In brackets after ≈: the same amount, converted by molar mass.

What was measured:
HeLa = assay: In vitro effective dose for its cytostatic activity against HeLa cells.; type: functional; details: Homo sapiens, read-out: ED50 (the source's name)
[1] = Compound was evaluated for the protonation constant by binding to DNA by intercalation in calf thymus.; type: ADME, Bos taurus; details: cattle

EC50 (HeLa) | pKa [1] | SMILES
25 mg/L (≈ 76.6 µM) | 8.3 | OCCCNc1nnc(NCCCO)c2cc3ccccc3cc12
1.25 mg/L (≈ 3.28 µM) | 6.2 | CN(C)CCCNc1nnc(NCCCN(C)C)c2cc3ccccc3cc12
10 mg/L (≈ 28.2 µM) | 8.3 | COCCCNc1nnc(NCCCOC)c2cc3ccccc3cc12
– | 7.4 | COc1cc(NS(C)(=O)=O)ccc1Nc1c2ccccc2nc2ccccc12 [AMSACRINE]
